Data taken from patent US11198710B2, “Transgenic plant having herbicide resistance” (priority 2016, dated 2021).

Assays:
ZmB6T8R4 = experiment: Pyroxasulfone metabolizing activity based on fatty acid content in cultured rice cells; format: cell-based, maize; details: cultured rice cells with ZmB6T8R4 gene; 10^−7M or 10^−6M pyroxasulfone, liquid culture 14 to 17 days
Experimental: (§1) The transgenic cultured rice cells thus prepared were used for liquid culture in the presence of pyroxasulfone. Pyroxasulfone was added to the liquid medium as an acetone solution. The final acetone concentration was 0.1%. When liquid culture was carried out, cultured rice cells transformed with KLB-279 (a plasmid comprising Act1p (rice actin 1 promoter)::sGFP::NOSt incorporated into the MCS of PalSelect R-4) were designated as the control samples. Liquid culture was carried out as described below.
(§2) A bag of mixed salts for Murashige-Skoog medium (MS inorganic salts), 1 ml of 10 mg/ml thiamin hydrochloride, 1 ml of 5 mg/ml nicotinic acid, 1 ml of 10 mg/ml pyridoxine hydrochloride, 1 ml of 2 mg/ml glycine, 1 ml of 0.2 mg/ml 2,4-D, 30 g of sucrose, and 1 ml of 50 mg/ml myo-inositol were added into a 1-liter beaker, a pH was adjusted to 5.7, and the volume was precisely adjusted to 1,000 nil with the addition of distilled water, followed by autoclave. After 0.05 ml of pyroxasulfone was added to a 200-ml erlenmeyer flask containing 50 ml of the liquid medium, about 0.5 g of the control cultured rice cells proliferated in a solid medium of the same composition as described above further supplemented with 3 g of gellan gum and 0.25 μM BS or about 0.5 g of the transgenic cultured rice cells prepared as described above were added to the liquid medium, and culture was carried out for 14 to 17 days. After the completion of culture, the liquid medium was removed, and cultured rice cells were recovered.
(§3) One month after the transformation, cultured rice cells comprising the GST genes introduced therein were selected with the use of 0.25 μM bispyribac sodium (BS). Subsequently, the fresh cultured rice cells proliferated in the selection medium were mass-cultured in a conical beaker for approximately 1 month and then used for liquid culture in a pyroxasulfone-containing medium. When conducting liquid culture, the concentration was adjusted to 10^−7M or 10^−6M, so that pyroxasulfone would influence the fatty acid content in the cultured rice cells (Y. Tanetani et al., Pestic. Biochem. Physiol., 95, 47-55, 2009). […]
(§4) Fatty acid was extracted using undecenoic acid (C11:1) as an internal standard. As analytical standards, Supelco FAME mix containing C14:0, C16:0, C16:1, C18:0, C18:1, C18:2, C18:3, C20:0, C22:0, C22:1, and C24:0 and other fatty acid methyl esters (C11:1, C15:0, C20:1, and C26:0) were used, and calibration curves thereof were prepared, followed by quantification. […] Quantitative and qualitative analyses were carried out as methyl esters, although fatty acid methyl esters were converted into fatty acids at the time of quantitative analysis. […]

ZmM16901 = molecular target: T1, ZmM16901 (Zea mays, UniProt P12653); experiment: as above; format: cell-based, maize; details: cultured rice cells with ZmM16901 gene; 10^−7M or 10^−6M pyroxasulfone, liquid culture 14 to 17 days
T1 construct: expressed in transfected cells; host or cells: cultured rice cells (Agrobacterium EHA105, PalSelect R-4-GST)
T1 sequence (P12653 whole entry): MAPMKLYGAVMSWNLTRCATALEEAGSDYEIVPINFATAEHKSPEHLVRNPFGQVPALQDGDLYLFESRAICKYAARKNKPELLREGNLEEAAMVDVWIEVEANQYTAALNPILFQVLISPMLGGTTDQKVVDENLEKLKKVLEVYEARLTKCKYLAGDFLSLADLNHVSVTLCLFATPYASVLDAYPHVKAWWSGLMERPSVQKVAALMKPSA
Experimental: as §1, §2, §3, §4

ZmQ9ZP61 = experiment: as above; format: cell-based, maize; details: cultured rice cells with ZmQ9ZP61 gene; 10^−7M or 10^−6M pyroxasulfone, liquid culture 14 to 17 days
Experimental: as §1, §2, §3, §4

ZmY12862 = experiment: as above; format: cell-based, maize; details: cultured rice cells with ZmY12862 gene; 10^−7M or 10^−6M pyroxasulfone, liquid culture 14 to 17 days
Experimental: as §1, §2, §3, §4

TaQ8GTC1-R protein = experiment: Glutathione conjugation activity of the TaQ8GTC1-R protein to pyroxasulfone (HPLC); format: biochemical, wheat; details: 30° C., 1 hour
Experimental: The glutathione conjugation activity to pyroxasulfone was measured in a reaction mixture (200 μl in total) containing 50 μl of 100 mM potassium phosphate buffer (pH 6.8), 10 μl of 1 mM pyroxasulfone (acetone solution), 20 μl of 10 mM reduced glutathione (pH 7.0), and 120 μl of the TaQ8GTC1-R protein (PBS solution containing 20% glycerol), the reaction was conducted at 30° C. for 1 hour, the reaction product was filtered through a 0.2-μm filter, and 50 μl of the resulting solution was injected into HPLC. A reaction mixture (prepared with the addition of PBS containing 20% glycerol instead of the TaQ8GTC1-R protein) and another reaction mixture (prepared with the addition of PBS containing 20% glycerol and sterile water instead of the TaQ8GTC1-R protein and glutathione, respectively) were prepared as control reaction mixture. […]
Subsequently, the glutathione conjugation activity of the TaQ8GTC1-R protein to pyroxasulfone was examined. […] The amount of the protein added to the enzyme reaction mixture was determined to be 500 ng since about 50% of a total of 10 nmol of the added herbicides was converted into glutathione conjugates when the enzyme activity of the about 400 ng of TaQ8GTC0 (see Example 1) was inspected under the same conditions.

SMILES: Cn1nc(C(F)(F)F)c(CS(=O)(=O)C2=NOC(C)(C)C2)c1OC(F)F [Pyroxasulfone, 3-[5-(difluoromethoxy)-1-methyl-3-(trifluoromethyl)pyrazol-4-ylmethylsulfonyl]-4,5-dihydro-5,5-dimethyl-1,2-oxazole]
- pyroxasulfone metabolizing activity (C15:0 and VLCFA contents) (ZmB6T8R4): no pyroxasulfone metabolizing activity
- pyroxasulfone metabolizing activity (C15:0 and VLCFA contents) (ZmM16901): no pyroxasulfone metabolizing activity
- pyroxasulfone metabolizing activity (C15:0 and VLCFA contents) (ZmQ9ZP61): no pyroxasulfone metabolizing activity
- pyroxasulfone metabolizing activity (C15:0 and VLCFA contents) (ZmY12862): no pyroxasulfone metabolizing activity
- glutathione conjugation activity to pyroxasulfone (TaQ8GTC1-R protein; 500 ng TaQ8GTC1-R protein): did not possess glutathione conjugation activity
- pyroxasulfone added to the reaction mixture converted into M-15 (TaQ8GTC1-R protein; equivalent in enzyme reaction mixture (500 ng protein) and reaction mixture without enzyme): about 3%
